Laboratory results taken from patent US12466821B2 (Novartis AG, priority 2018, dated 2025).

How the values were obtained:
[1] = biological target: human CMV DNA polymerase UL54 (Human cytomegalovirus (strain AD169) (HHV-5) (Human herpesvirus 5), UniProt P08546); assay: CMV polymerase biochemical assay (molecular beacon-based)
Method in brief: (§1)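 Readout was beacon fluorescence (ex 480, em 535 nm), used to derive IC50. Each dNTP was at 1.25 uM, with 200 nM primer and 100 nM beacon, after a 30-min RT inhibitor preincubation. Enzyme was 625 pM for HSV UL30 (20 min RT reaction) or 100 pM for CMV UL54 (60 min RT), both sf9-expressed MBP fusions, in pH 7.5 Tris buffer with MgCl2.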

[2] = biological target: human HSV DNA polymerase UL30 (Human herpesvirus 1 (strain 17) (HHV-1) (Human herpes simplex virus 1), UniProt P04293); assay: HSV polymerase biochemical assay (molecular beacon-based)
Method in brief: as §1

[3] = test system: Luciferase-encoding HCMV, AD169 strain; assay: CMV Luciferase assay (cellular herpesvirus replication); type: cell-based; settings: Human betaherpesvirus 5, AD169, read-out: CMV-Luc Cellular EC50
Method in brief: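 Neonatal human dermal fibroblasts were pretreated 1 h with compound (final 0.0159–50 μM or 0.00318–10 μM, 0.5% DMSO), then infected at MOI 1 with AD169 carrying pp28-promoter luciferase. After 72 h at 37 °C, Renilla-Glo luminescence normalized to no-virus and virus-only controls; EC50 by 4-parameter logistic model.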

SMILES: CC(C)(CN)S(=O)(=O)C1(CN2CCn3c(ccc(C(=O)NCc4ccc(C#N)cc4)c3=O)C2=O)CC1 [Example 184]
- IC50 [1]: 3.9 nM
- IC50 [2]: 60.3 nM
- EC50 [3]: 31.6 nM

SMILES: CC(C)(C#N)S(=O)(=O)C1(CN2CCn3c(ccc(C(=O)NCc4ccc(Cl)cc4)c3=O)C2=O)CC1 [Example 185, N-(4-chlorobenzyl)-2-((1-((2-cyanopropan-2-yl)sulfonyl)cyclopropyl)methyl)-1,6-dioxo-1,3,4,6-tetrahydro-2H-pyrido[1,2-a]pyrazine-7-carboxamide]
- IC50 [1]: 1.2 nM
- IC50 [2]: 29.5 nM
- EC50 [3]: 18.9 nM

SMILES: CC(C)(c1nnn[nH]1)S(=O)(=O)C1(CN2CCn3c(ccc(C(=O)NCc4ccc(Cl)cc4)c3=O)C2=O)CC1 [Example 186, 2-((1-((2-(1H-tetrazol-5-yl)propan-2-yl)sulfonyl)cyclopropyl)methyl)-N-(4-chlorobenzyl)-1,6-dioxo-1,3,4,6-tetrahydro-2H-pyrido[1,2-a]pyrazine-7-carboxamide]
- IC50 [1]: 1.2 nM
- IC50 [2]: 20.5 nM
- EC50 [3]: 6660 nM

SMILES: COCC(C)(C)S(=O)(=O)C1(CN2CCn3c(ccc(C(=O)NCc4ccc(C#N)cc4)c3=O)C2=O)CC1 [Example 187]
- IC50 [1]: 0.4 nM
- IC50 [2]: 52.9 nM
- EC50 [3]: 14.9 nM

SMILES: COC1(S(=O)(=O)C2(CN3CCn4c(ccc(C(=O)NCc5ccc(C#N)cc5)c4=O)C3=O)CC2)CC1 [Example 189]
- IC50 [1]: 1.1 nM
- IC50 [2]: 59.8 nM
- EC50 [3]: 55.7 nM

SMILES: COC1(S(=O)(=O)C2(CN3CCn4c(ccc(C(=O)NCc5ccc(C#N)c(F)c5)c4=O)C3=O)CC2)CC1 [Example 190]
- IC50 [1]: 1.4 nM
- IC50 [2]: 66.5 nM
- EC50 [3]: 47.8 nM

SMILES: CC(CN1CCn2c(ccc(C(=O)NCc3ccc(Cl)cc3)c2=O)C1=O)S(=O)(=O)C1CC1 (stereo not drawn) [Example 191]
- IC50 [1]: 76.5 nM
- IC50 [2]: 5460 nM
- EC50 [3]: 3460 nM

SMILES: CC(CN1CCn2c(ccc(C(=O)NCc3ccc(C#N)cc3)c2=O)C1=O)S(=O)(=O)C1CC1 (stereo not drawn) [Example 192]
- IC50 [1]: 194 nM
- IC50 [2]: 3010 nM
- EC50 [3]: 8050 nM

SMILES: O=C(NCc1ccc(Cl)cc1)c1ccc2n(c1=O)CCN(CCS(=O)(=O)C1CC1)C2=O [Example 193]
- IC50 [1]: 34.1 nM
- IC50 [2]: 420 nM
- EC50 [3]: 1240 nM

SMILES: N#Cc1ccc(CNC(=O)c2ccc3n(c2=O)CCN(CCS(=O)(=O)C2CC2)C3=O)cc1 [Example 194]
- IC50 [1]: 103 nM
- IC50 [2]: 855 nM
- EC50 [3]: 4220 nM

SMILES: N#Cc1ccc(CNC(=O)c2ccc3n(c2=O)CCN(CCS(=O)(=O)C2CC2)C3=O)cc1F [Example 195]
- IC50 [1]: 67.1 nM
- IC50 [2]: 649 nM
- EC50 [3]: 2610 nM

SMILES: N#Cc1ccc(CNC(=O)c2ccc3n(c2=O)CCN(CC2(S(=O)(=O)C4(O)CC4)CC2)C3=O)cc1 [Example 196, N-(4-cyanobenzyl)-2-((1-((1-hydroxycyclopropyl)sulfonyl)cyclopropyl)methyl)-1,6-dioxo-1,3,4,6-tetrahydro-2H-pyrido[1,2-a]pyrazine-7-carboxamide]
- IC50 [1]: 7.7 nM
- IC50 [2]: 205 nM
- EC50 [3]: 509 nM

SMILES: CS(=O)(=O)NC1(CN2CCn3c(ccc(C(=O)NCc4ccc(Cl)cc4)c3=O)C2=O)CC1 [Example 198]
- IC50 [1]: 37.2 nM
- IC50 [2]: 1500 nM
- EC50 [3]: 1680 nM

SMILES: CCS(=O)(=O)NC1(CN2CCn3c(ccc(C(=O)NCc4ccc(Cl)cc4)c3=O)C2=O)CC1 [Example 199]
- IC50 [1]: 53.7 nM
- IC50 [2]: 1110 nM
- EC50 [3]: 1720 nM

SMILES: O=C(NCc1ccc(Cl)cc1)c1ccc2n(c1=O)CCN(CC1(NS(=O)(=O)C3CC3)CC1)C2=O [Example 200]
- IC50 [1]: 232 nM
- IC50 [2]: 2560 nM
- EC50 [3]: 6770 nM

SMILES: O=C(NCc1ccc(Cl)cc1)c1ccc2n(c1=O)CCN(CC1(N3CCCC3=O)CC1)C2=O [Example 201, N-(4-chlorobenzyl)-1,6-dioxo-2-((1-(2-oxopyrrolidin-1-yl)cyclopropyl)methyl)-1,3,4,6-tetrahydro-2H-pyrido[1,2-a]pyrazine-7-carboxamide]
- IC50 [1]: 182 nM
- IC50 [2]: 4060 nM
- EC50 [3]: 4810 nM

SMILES: O=C(NCc1ccc(Cl)cc1)c1ccc2n(c1=O)CCN(CC1(N3CCCCC3=O)CC1)C2=O [Example 202]
- IC50 [1]: 305 nM
- IC50 [2]: 6470 nM
- EC50 [3]: 7650 nM

SMILES: O=C(NCc1ccc(Cl)cc1)c1ccc2n(c1=O)CCN(CC1(N3CCOCC3=O)CC1)C2=O [Example 203]
- IC50 [1]: 410 nM
- IC50 [2]: 12200 nM
- EC50 [3]: 10000 nM

SMILES: CNC1(CN2CCn3c(ccc(C(=O)NCc4ccc(Cl)cc4)c3=O)C2=O)CC1 [Example 204, N-(4-chlorobenzyl)-2-((1-(methylamino)cyclopropyl)methyl)-1,6-dioxo-1,3,4,6-tetrahydro-2H-pyrido[1,2-a] pyrazine-7-carboxamide]
- IC50 [1]: 156 nM
- IC50 [2]: 5470 nM
- EC50 [3]: 4040 nM

SMILES: CC(=O)N(C)C1(CN2CCn3c(ccc(C(=O)NCc4ccc(Cl)cc4)c3=O)C2=O)CC1 [Example 205]
- IC50 [1]: 249 nM
- IC50 [2]: 8590 nM
- EC50 [3]: 3760 nM

SMILES: CN(C(=O)OC(C)(C)C)C1(CN2CCn3c(ccc(C(=O)NCc4ccc(Cl)cc4)c3=O)C2=O)CC1 [Example 206]
- IC50 [1]: 1740 nM
- IC50 [2]: 250000 nM
- EC50 [3]: 10000 nM

SMILES: O=C(NCc1ccc(Cl)cc1)c1ccc2n(c1=O)CCN(CC1(C(=O)N3CCCC3)CC1)C2=O [Example 210]
- IC50 [1]: 25.7 nM
- IC50 [2]: 428 nM
- EC50 [3]: 494 nM

SMILES: CNc1cc(CNC(=O)c2ccc3n(c2=O)CCN(CC2(S(=O)(=O)C4CC4)CC2)C3=O)ccc1C#N [Example 212, N-(4-cyano-3-(methylamino)benzyl)-2-((1-(cyclopropylsulfonyl)cyclopropyl)methyl)-1,6-dioxo-1,3,4,6-tetrahydro-2H-pyrido[1,2-a]pyrazine-7-carboxamide]
- IC50 [1]: 0.6 nM
- IC50 [2]: 51.4 nM
- EC50 [3]: 315 nM
